PubChem BioAssay (NCI)
Values joined by “and” are separate entries in the source; they are usually repeats but may differ in a detail not shown here. Equal entries are not always repeated.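 How tested: cells in 96-well plates exposed to compound for 48 hours at five concentrations. GI50 marks 50% less growth. Definition used: TGI = concentration required for complete inhibition of growth.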

How the values were obtained:
Assay in all cases: NCI anticancer screen, dose series, 48 h
SR leukemia = tested on: SR leukemia
MDA-MB-231 breast = tested on: MDA-MB-231 breast
KM12 colon = tested on: KM12 colon
SF-268 CNS = tested on: SF-268 CNS
SK-OV-3 ovarian = tested on: SK-OV-3 ovarian
U251 CNS = tested on: U251 CNS
RXF 393 renal = tested on: RXF 393 renal
HOP-92 NSCLC = tested on: HOP-92 NSCLC
NCI/ADR-RES ovarian = tested on: NCI/ADR-RES ovarian
SK-MEL-5 melanoma = tested on: SK-MEL-5 melanoma

| SMILES | GI50 (SR leukemia) | TGI (SR leukemia) | GI50 (MDA-MB-231 breast) | TGI (MDA-MB-231 breast) | GI50 (KM12 colon) | TGI (KM12 colon) | GI50 (SF-268 CNS) | TGI (SF-268 CNS) | GI50 (SK-OV-3 ovarian) | TGI (SK-OV-3 ovarian) | GI50 (U251 CNS) | TGI (U251 CNS) | GI50 (RXF 393 renal) | TGI (RXF 393 renal) | GI50 (HOP-92 NSCLC) | TGI (HOP-92 NSCLC) | GI50 (NCI/ADR-RES ovarian) | TGI (NCI/ADR-RES ovarian) | GI50 (SK-MEL-5 melanoma) | TGI (SK-MEL-5 melanoma) |
| --- | --- | --- | --- | --- | --- | --- | --- | --- | --- | --- | --- | --- | --- | --- | --- | --- | --- | --- | --- | --- |
| O=C1NC(=O)[C@@H](c2cn3c4c(cccc24)CCC3)[C@@H]1c1c[nH]c2ccccc12 | 0.246 µM and 0.377 µM | > 10 µM and 27.6 µM | 0.632 µM and 1.19 µM | 8.12 µM and 9.86 µM | 0.382 µM and 0.433 µM | > 10 µM and 6.15 µM | 1.32 µM and 0.911 µM | > 10 µM and 17.5 µM | 0.48 µM and 0.372 µM | > 10 µM and 12.2 µM | 0.391 µM and 0.451 µM | > 10 µM and 12.9 µM | 0.294 µM and 0.332 µM | > 10 µM and 2.91 µM | 0.354 µM and 1.68 µM | > 10 µM and 25.5 µM | 0.327 µM and 0.369 µM | > 4.71 µM and 9.55 µM | 0.266 µM and 0.289 µM | 1.36 µM and 3.07 µM |
| CCOC(=O)Oc1c(OC)cc(C(=O)c2ccc(OC)c(OC(=O)CCl)c2OC)cc1OC | 0.459 µM | > 100 µM | 1.9 µM | > 100 µM | 0.543 µM | > 100 µM | 10.7 µM | > 100 µM | 2.58 µM | > 100 µM | 0.926 µM | > 100 µM | 1.54 µM | 8.08 µM | 1.78 µM | > 100 µM | 0.497 µM | 3.98 µM | 0.475 µM | 14.9 µM |
| O=C1CCCSCCCC(=O)CCCSCCC1 | – | > 100 µM | – | > 100 µM | – | > 100 µM | – | > 100 µM | – | > 100 µM | – | > 100 µM | – | – | – | > 100 µM | – | > 100 µM | – | > 100 µM |
| C=C1C(=O)O[C@H]2[C@H]1CC/C(COC(=O)/C=C/c1cccnc1)=C\CC[C@@]1(C)O[C@@H]21 | 1.57 µM | 7.01 µM | 2 µM | 5.04 µM | 3.47 µM | 13.2 µM | 4.63 µM | 18.4 µM | 16.4 µM | 53 µM | 5.74 µM | 18.3 µM | 0.75 µM | 2.15 µM | 0.853 µM | 2.74 µM | 3.3 µM | 14.1 µM | 3.37 µM | 12.6 µM |
| O=C(O)CSCC(=O)c1ccccc1 | – | > 100 µM | – | > 100 µM | – | > 100 µM | – | > 100 µM | – | > 100 µM | – | > 100 µM | – | > 100 µM | – | > 100 µM | – | > 100 µM | – | > 100 µM |
| C=C1C(=O)OC2C1C(OC(=O)/C(C)=C/C)CC(O)(CCl)C1C(OC(C)=O)C=C(C)C21O (stereo unspecified) | – | 26.1 µM | – | 38.1 µM | – | 39.5 µM | – | 32.4 µM | – | > 100 µM | – | 41.2 µM | – | 25 µM | – | 27.9 µM | – | 61 µM | – | 34.4 µM |
| O=c1oc2ccccc2cc1-c1ccc([N+](=O)[O-])cc1 | – | > 100 µM | – | > 100 µM | – | > 100 µM | – | > 100 µM | – | > 100 µM | – | > 51.9 µM | – | > 100 µM | – | > 100 µM | – | > 100 µM | – | > 100 µM |
| CCOC(=O)c1[nH]c2cccc3c2c1CC(Br)C3=O (stereo unspecified) | – | 4.99 µM | – | 33.6 µM | – | 30.5 µM | – | 32.9 µM | – | 54.7 µM | – | 30.1 µM | – | – | – | 33.6 µM | – | 30.3 µM | – | 33.1 µM |
| Cc1cc(Cl)ccc1NC(=O)/C(Cc1nc2ccc(C(=O)c3ccccc3)cc2[nH]c1=O)=N/NC(=O)c1ccncc1 | – | > 100 µM | – | > 100 µM | – | > 100 µM | – | > 100 µM | – | > 100 µM | – | > 100 µM | – | > 100 µM | – | > 100 µM | – | > 100 µM | – | > 100 µM |
| O=C(O)C(Cc1ccccc1-c1ccccc1)C(=O)O | – | > 100 µM | – | > 100 µM | – | > 100 µM | – | > 100 µM | – | – | – | > 100 µM | – | > 100 µM | – | > 100 µM | – | > 100 µM | – | > 100 µM |
| COc1cccc(-c2nc(-c3ccc(NS(=O)(=O)c4ccccc4)cc3)[nH]c2-c2ccnc(Br)c2)c1 | 2.85 µM | > 100 µM | 3.23 µM | 45.8 µM | 2.65 µM | 8.74 µM | 3.34 µM | > 100 µM | 3.04 µM | > 100 µM | 2.73 µM | > 100 µM | 2.18 µM | 5.73 µM | 2.46 µM | 6.54 µM | 3.44 µM | > 100 µM | 1.87 µM | 3.49 µM |
| COc1ccc2c(CN3CCC(CO)CC3)cc3cc4c(cc3c2c1)OCO4 | 0.0666 µM | 0.712 µM | 1.35 µM | 12.3 µM | 0.28 µM | 4.34 µM | 0.176 µM | 2.47 µM | 0.326 µM | 3.83 µM | 0.265 µM | 8.82 µM | 0.0843 µM | 0.847 µM | 0.0911 µM | 0.633 µM | 0.255 µM | 10.4 µM | 0.172 µM | 0.495 µM |
| OCc1ccc(N(Cc2ccc(F)cc2)C2CCC2)cc1Cl | 15.3 µM | 35 µM | 14.9 µM | 28.6 µM | 14.5 µM | 28.7 µM | 18.1 µM | 33.9 µM | 11 µM | 23 µM | 1.02 µM | 16.2 µM | 3.57 µM | 16.6 µM | 0.3 µM | 6.69 µM | 12.7 µM | 27.8 µM | 9.11 µM | 21.8 µM |
| CCN(CC)c1ccc2[nH]c3c(C(N)=O)cc(=O)c(=O)c=3oc2c1 | 2.84 µM | 8.74 µM | 2.9 µM | > 100 µM | 2.94 µM | 11.3 µM | 1.98 µM | 15.1 µM | – | – | 0.912 µM | 5.75 µM | 1.37 µM | 6.39 µM | 2.82 µM | 7.83 µM | 1.72 µM | 11.8 µM | 1.22 µM | 2.49 µM |
| COc1cc(-c2cc(C(=O)Nc3nc4ccccc4s3)nc3cc(-c4ccccc4)nn23)cc(OC)c1OC | 19.7 µM | 52.5 µM | 5.63 µM | 69.2 µM | 22.6 µM | > 100 µM | 4.5 µM | 48.8 µM | 12.5 µM | 27.9 µM | 5.14 µM | 32.6 µM | 6.22 µM | 22.1 µM | 0.775 µM | 5.24 µM | 19.6 µM | > 100 µM | 13.8 µM | > 100 µM |
| O=P(Oc1ccccc1)(Oc1ccccc1)C(O)c1ccccc1 (stereo unspecified) | 62.3 µM | > 100 µM | 71.3 µM | > 100 µM | 51 µM | > 100 µM | > 100 µM | > 100 µM | > 100 µM | > 100 µM | 48.9 µM | > 100 µM | 60.6 µM | > 100 µM | – | – | > 100 µM | > 100 µM | 53.1 µM | > 100 µM |
| COc1ccc(C(=O)c2cc(OC)c(OC)c(OC)c2)cc1/C=C/C(=O)c1ccc(O)cc1 | 0.433 µM | > 100 µM | 4.02 µM | 24.9 µM | 2.44 µM | 7.05 µM | 3.98 µM | 95.1 µM | 16.3 µM | > 100 µM | 4.58 µM | 18.3 µM | 3.57 µM | 14.9 µM | 1.21 µM | 3.31 µM | 2.68 µM | 8.09 µM | 1.46 µM | 2.98 µM |
| O=C(O)C1CCCN1Cc1c[nH]c2ccccc12 (stereo unspecified) | – | > 100 µM | – | > 100 µM | – | > 100 µM | – | > 100 µM | – | > 100 µM | – | > 100 µM | – | > 100 µM | – | > 100 µM | – | > 100 µM | – | > 100 µM |
| O=C(Oc1cccc(Nc2ncnc3ccccc23)c1)c1ccccc1Cl | 65.7 µM | > 100 µM | 14.3 µM | 36 µM | 14.4 µM | 31.4 µM | 20.8 µM | 67 µM | 66.8 µM | > 100 µM | 25.4 µM | 63.5 µM | 24.8 µM | 70.6 µM | – | – | 14.5 µM | 40.7 µM | 14.6 µM | 28.2 µM |
| Cc1cc(S(=O)(=O)Nc2nnc(-c3ccco3)c(-c3ccco3)n2)c(SCc2ccccc2)cc1Cl | 19.4 µM | 40 µM | 24.8 µM | 47.6 µM | 27.8 µM | > 100 µM | 20.1 µM | 41.2 µM | – | – | 25.7 µM | 62.2 µM | 22.8 µM | 47.6 µM | 21.5 µM | 45.4 µM | 39.4 µM | > 100 µM | 17.5 µM | 32.5 µM |
| Cc1c(C(=O)N/N=C/c2ccc(O)cc2)nnn1-c1ccnc2c(C(F)(F)F)cccc12 | 44.1 µM | > 100 µM | 12.7 µM | 48.4 µM | > 100 µM | > 100 µM | 64.4 µM | > 100 µM | 27.2 µM | 76.7 µM | – | – | 5.22 µM | 34.6 µM | 17 µM | 50.4 µM | > 100 µM | > 100 µM | > 100 µM | > 100 µM |
| O=C1NC(=O)C2=C1CCC2O (stereo unspecified) | – | > 100 µM | – | > 100 µM | – | > 100 µM | – | > 100 µM | – | > 100 µM | – | > 100 µM | – | > 100 µM | – | > 100 µM | – | > 100 µM | – | – |
